PMC8456932, “Amphiphilic Iodine(III) Reagents for the Lipophilization of Peptides in Water” (Angewandte Chemie (International Ed. in English), 2021)
Where a SMILES comes first, the peptide text is derived from it. The star is where a group is joined. Ethynyl(2-Si(iPr)3) = CC(C)[Si](C#C*)(C(C)C)C(C)C

Experiments:
Format in all cases: physicochemical
[1] = Partition coefficient (LogP), octanol/water method
Source text: [24] Determined using the octanol/water method according to: J. A.Arnott, S. L.Planey, Expert Opin. Drug Discovery 2012, 7, 863–875.
Calibration with 11a was achieved through the preparation of several samples of different concentrations and their analysis on RP HPLC. These analyses were repeated three times in order to obtain an average curve of calibration. The following linear regression was obtained: Y = 470.12 X + 284.02 and R = 0.9887, where Y is the absorption in mAUs -1 at 214 nm and X the concentration of 11a in mM.
Figure S3. calibration curve of 11a.
Calculation of Partition coefficient ( LogP)4
2.5 mg (4.0 µmol) 11a was dissolved in 1.7 mL octanol -H2O mixture (0.85 mL 1 -Octanol + 0.85 mL milli-Q H2O) in a 5 mL vial. In order to mix the layers, the vial was shaken on vertex for 1 min. Then the mixture was transferred to a separating funnel. The separating funnel was closed and left standing for 3 h to separate the organic and the H2O layer. Both layers were taken separately and submitted tonreverse phase HPLC. The concentration of both layers was determined by HPLC - […]
Amount of 11a in 1-octanol = 2.41 mg/mL
Amount of 11a in H2O = 0.09 mg/mL
Partition coefficient (P) = amount of 11a in 1-octanol/ amount of 11a in H2O […]
Following the same procedure for starting material 11: LogP = -1.53
4 J. R. Espinosa, C. R. Wand, C. Vega, E. Sanz, D. Frenkel, J. Chem. Phys. 2018, 149, 224501.
(1 picture or pasted object on this page, not shown here)

[2] = Retention time in RP-HPLC as qualitative measure of lipophilicity; conditions: analytical RP-HPLC
Method: For example, the retention time of peptide 11 shifted from 5.8 to 13.6 min for 11 a and 20.2 min for 11 b (See SI). The partition coefficient (LogP) of product 11 a was determined to be 1.53 compared with −1.43 for 11.[24] […]
followed by dimethylformamide wash (4 x 3 mL). Fmoc groups were then removed by shaking the resin with 20% v/v piperidine in dimethylformamide at 400 rpm, over 5 minutes. This step was carried out twice. Next, washing steps were achieved with dimethylformamide (5 x 3 mL). Finally, resin was dried with dichloromethane (5 x 3 mL).
Peptide cleavage and deprotection: Peptides were deprotected and cleaved from the resin under reducing conditions, by treatment with 2.5% v/v water and 2.5% v/v triisopropylsilane (TIPS) in neat trifluoroacetic acid (5 mL). The resulting mixture was shaken for 2 hours at 400 rpm, at room temperature. The resin was removed by filtration and peptides were precipitated in cold diethyl ether (20 mL), followed by a 2 hours incubation at -20 °C. Peptides were pelleted by centrifugation at 4000 rpm, at 4 °C, for 5 minutes. […]
A. Fractions containing the desired peptide were lyophilized. The purity was assessed by analyzing a 10-20 mM peptide solution by RP-HPLC (HPLC gradient: 100% A to 100% B in 30 minutes. At the same time, low-resolution mass spectrometric measurements were also acquired. […]

[3] = Cleavage of thioesters with hydroxylamine; conditions: HPLC
Source text: The obtained thioalkynes constitute a new type of lipophilic compounds lacking the electrophilic carbonyl group present in natural palmitoylated peptides, which is required for their hydrolysis. In presence of trifluoroacetic acid (TFA), clean hydration to give thioesters was observed (Scheme 5 a). This hydration can be performed in a one pot protocol with silylated and alkylated alkynes on both small and larger peptides to give thioesters such as 11 aa–bb, 17 aa–bb, 18 aa and 23 aa–bb in 58–82 % yield. 11 bb, 17 bb and 23 bb are then natural palmitoylated products. […] Numerous enzymatic and chemical methods have been reported for the cleavage of palmitoyl groups on cysteine.[25] […] Nevertheless, treatment with a KF solution followed by hydroxylamine also allowed to cleave this thioester with 90 % conversion. Taken together, our work therefore gives access to lipophilic peptide derivatives modifiable/cleavable under different conditions, which can be exploited depending on the desired application.
Cleavage of palmitoylthioester of Ac-Trp-Met-Asn-Ser-Thr-Gly-Phe-Thr-Lys-Val-Cys-Gly-Ala-NH2 (17bb) A 1.5 mL vial was charged with 17bb (0.5 mg, […],1.0 equiv.) 70 µL 1M NH2OH with a small magnetic bar. The NH2OH solution was freshly prepared in Milli Q water. Then the reaction mixture was stirred for 4 h at rt. […]
Yield for 17 and disulfide quantitative (retention time 5.0). […]

[4] = Solubility in water of EBX reagents
[5] = shake-flask 1-octanol/milli-Q H2O (0.85 mL + 0.85 mL), 2.5 mg, vortexed 1 min, left standing 3 h, both layers by RP-HPLC-UV 214 nm

## CC(=O)N[C@@H](C)C(=O)N[C@@H](CSC#C[Si](C(C)C)(C(C)C)C(C)C)C(=O)NCC(=O)N[C@@H](Cc1ccccc1)C(N)=O [11a] (Ac-AC(Ethynyl(2-Si(iPr)3))GF-NH2)
[1]; [5]
  logP: 1.53
  partition coefficient (LogP): 1.43
[1]; shake-flask 1-octanol/milli-Q H2O, HPLC-UV 214 nm
  Partition coefficient (P) = amount in 1-octanol / amount in H2O: 26.78

## CC[C@H](C)[C@H](NC(=O)[C@H](Cc1ccccc1)NC(=O)[C@H](CSC#C[Si](C(C)C)(C(C)C)C(C)C)NC(=O)[C@@H](NC(=O)[C@H](CCC(N)=O)NC(=O)[C@H](CSC#C[Si](C(C)C)(C(C)C)C(C)C)NC(=O)[C@H](Cc1c[nH]cn1)NC(=O)[C@H](Cc1ccccc1)NC(C)=O)C(C)C)C(=O)N[C@H](C(N)=O)[C@@H](C)O [24a, Alkynylated (Phe32-Thr40) Ac-Phe-His-Cys-Gln-Val-Cys-Phe-Ile-Thr-NH2] (Ac-FHC(Ethynyl(2-Si(iPr)3))QVC(Ethynyl(2-Si(iPr)3))FIT-NH2)
[2]; SI, HPLC gradient Method 1
  retention time (HPLC-MS of reaction mixture): 19.7

## silylthioester of H-Ala-Cys-Ala-Phe-Lys-Asp-NH2 [18aa]
[3]; 1 M NH2OH in Milli Q water, rt, 4 h
  cleavage of the thioester by hydroxylamine: reacts only very slowly
[3]; KF (28.7 equiv) and 1M NH2OH, 37 °C, 14 h
  conversion in thioester cleavage with KF and hydroxylamine: 90%

## K/Na-5-sulfonate TIPS-EBX-SO3M [4a]
[4]; 4a vs 1, water
  increase of solubility in water compared to TIPS-EBX (1): more than fifty fold
[4]
  solubility in water: 0.46 mg/mL
[4]; Supporting Information
  solubility in water: 460 mg/mL

## C14H29-EBX-SO3M [4b]
[4]
  solubility in water: 450 mg/mL
[4]; Supporting Information
  solubility in water: 450 mg/mL

## CC(=O)N[C@@H](C)C(=O)N[C@@H](CS)C(=O)NCC(=O)N[C@@H](Cc1ccccc1)C(N)=O [compound 11, Ac-Ala-Cys-Gly-Phe-NH2] (Ac-ACGF-NH2)
[2]; HPLC gradient Method 3 per SI
  retention time in RP-HPLC: 5.8 min
